A value given as a limit tells only on which side of the number the result lay.

The data set is described as follows: log P (Table 1). Format: physicochemical.
With `CCCc1nc2ccc(N(CCC)C(=O)OCC(C)C)cc2c(=O)n1Cc1ccc(-c2ccccc2-c2nnn[nH]2)cc1` [Example 10], the logP came to 5.1.

`CCCOC(=O)N(Cc1ccccc1)c1ccc2nc(CCC)n(Cc3ccc(-c4ccccc4-c4nnn[nH]4)cc3)c(=O)c2c1` [Example 17] displayed a logP of 5.

`CCCCOC(=O)N(CCCC)c1ccc2nc(CCC)n(Cc3ccc(-c4ccccc4-c4nn[nH]n4)cc3)c(=O)c2c1` [Example 24] had a logP of 6.

`CCCc1nc2ccc(N(Cc3ccccc3)C(=O)N(C)CC)cc2c(=O)n1Cc1ccc(-c2ccccc2-c2nn[nH]n2)cc1` [Example 30] displayed a logP of 4.3.

Turning to `CCCCCN(C(=O)c1ccccc1)c1ccc2nc(CCC)n(Cc3ccc(-c4ccccc4-c4nn[nH]n4)cc3)c(=O)c2c1` [Example 33, 2-propyl-6-(N-benzoyl-N-pentyl)-amino-3[(2'-(tetrazol-5-yl)biphen-4-yl)methyl]quinazolin-4(3H)-one], the logP worked out at 5.1.

With `CCCCCN(C(=O)c1ccncc1)c1ccc2nc(CCC)n(Cc3ccc(-c4ccccc4-c4nnn[nH]4)cc3)c(=O)c2c1` [Example 35], the logP was 4.3.

For `CCCc1nc2ccc(N(Cc3ccccc3)C(=O)c3ccccc3)cc2c(=O)n1Cc1ccc(-c2ccccc2-c2nn[nH]n2)cc1` [Example 36], the logP came out at 4.5.

`CCCCCN(C(=O)c1ccc(Cl)cc1)c1ccc2nc(CCC)n(Cc3ccc(-c4ccccc4-c4nn[nH]n4)cc3)c(=O)c2c1` [Example 37] came in with a logP of more than 6.

For the compound `CCCCC(=O)N(Cc1ccccc1)c1ccc2nc(CCC)n(Cc3ccc(-c4ccccc4-c4nn[nH]n4)cc3)c(=O)c2c1` [Example 42], the logP worked out at 5.4.

Turning to `CCCCCN(C(=O)c1ccc(F)cc1)c1ccc2nc(CCC)n(Cc3ccc(-c4ccccc4-c4nn[nH]n4)cc3)c(=O)c2c1` [Example 43], the logP worked out at 5.2.

The compound `CCCCN(C(=O)c1ccc(F)cc1)c1ccc2nc(CCC)n(Cc3ccc(-c4ccccc4-c4nn[nH]n4)cc3)c(=O)c2c1` [Example 44] returned a logP of 4.7.

`CCCc1nc2ccc(N(Cc3ccccc3)C(=O)OCC)cc2c(=O)n1Cc1ccc(-c2ccccc2-c2nn[nH]n2)cc1` [Example 56]: the logP was determined as 4.7.

As for `CCc1nc2ccc(N(Cc3ccccc3)C(=O)c3ccccc3)cc2c(=O)n1Cc1ccc(-c2ccccc2-c2nnn[nH]2)cc1` [Example 57], the logP is 4.1.

`CCCCN(C(=O)c1ccncc1)c1ccc2nc(CCC)n(Cc3ccc(-c4ccccc4-c4nn[nH]n4)cc3)c(=O)c2c1` [Example 68] had a logP of 4.1.

Regarding `Cc1nc2ccc(N(Cc3ccccc3)C(=O)c3ccccc3)cc2c(=O)n1Cc1ccc(-c2ccccc2-c2nnn[nH]2)cc1` [Example 69], the “log P” value is given as 3.5.

For the compound `CC(C)c1nc2ccc(N(Cc3ccccc3)C(=O)c3ccccc3)cc2c(=O)n1Cc1ccc(-c2ccccc2-c2nnn[nH]2)cc1` [Example 70], the “log P” value was found to be 4.5.

On to `CCCCCN(C(=O)c1cccnc1)c1ccc2nc(CCC)n(Cc3ccc(-c4ccccc4-c4nn[nH]n4)cc3)c(=O)c2c1` [Example 72], for which the logP amounted to 4.3.

Compound `CCCCCN(C(=O)c1ccccc1)c1ccc2nc(CCC)n(Cc3ccc(-c4ccccc4S(=O)(=O)NC(=O)C4CC4)cc3)c(=O)c2c1` [Example 73] yielded a logP of 5.3.

`CCCCCN(C(=O)c1ccccc1)c1ccc2nc(CCC)n(Cc3ccc(-c4ccccc4S(=O)(=O)NC(=O)c4ccccc4)cc3)c(=O)c2c1` [Example 74]: the logP turned out to be 5.5.

As to `CCc1nc2ccc(N(Cc3ccccc3)C(=O)c3ccncc3)cc2c(=O)n1Cc1ccc(-c2ccccc2-c2nn[nH]n2)cc1` [Example 75], the “log P” value is listed as 3.4.

`CCCCCN(C(=O)c1ccc([S+](C)[O-])cc1)c1ccc2nc(CCC)n(Cc3ccc(-c4ccccc4-c4nn[nH]n4)cc3)c(=O)c2c1` (stereo not drawn) [Example 81]: the logP was determined as 4.3.

Regarding `CCCCCN(C(=O)c1ccc(S(C)(=O)=O)cc1)c1ccc2nc(CCC)n(Cc3ccc(-c4ccccc4-c4nn[nH]n4)cc3)c(=O)c2c1` [Example 83], the lipophilicity (logP) was found to be 4.4.

As for `CCc1nc2ccc(N(Cc3ccccc3Cl)C(=O)c3ccccc3)cc2c(=O)n1Cc1ccc(-c2ccccc2-c2nn[nH]n2)cc1` [Example 84], the logP was 4.4.

In the case of `CCc1nc2ccc(N(CC=C(C)C)C(=O)c3ccccc3)cc2c(=O)n1Cc1ccc(-c2ccccc2-c2nn[nH]n2)cc1` [Example 85], the “log P” value was 4.2.

In turn, `CCCc1nc2ccc(N(CCC)C(=O)c3ccc(F)cc3)cc2c(=O)n1Cc1ccc(-c2ccccc2-c2nn[nH]n2)cc1` [Example 90] yielded a logP of 4.3.

`CC(C)c1nc2ccc(N(Cc3ccccc3Cl)C(=O)C3CC3)cc2c(=O)n1Cc1ccc(-c2ccccc2-c2nn[nH]n2)cc1` [Example 94]: the logP amounted to 4.8.

For `O=C(c1ccccc1)N(Cc1ccccc1)c1ccc2ncn(Cc3ccc(-c4ccccc4-c4nn[nH]n4)cc3)c(=O)c2c1` [Example 95], the logP is 3.3.

For the compound `CCC(C)c1nc2ccc(N(Cc3ccccc3)C(=O)c3ccccc3)cc2c(=O)n1Cc1ccc(-c2ccccc2-c2nn[nH]n2)cc1` (stereo not drawn) [Example 100], the logP stood at 4.9.

In the case of `CCCc1nc2ccc(N(CC(C)C)C(=O)c3ccccc3)cc2c(=O)n1Cc1ccc(-c2ccccc2-c2nnn[nH]2)cc1` [Example 102], the logP amounted to 4.5.

With `CCCc1nc2ccc(N(CCCC(=O)OCC)C(=O)c3ccccc3)cc2c(=O)n1Cc1ccc(-c2ccccc2-c2nnn[nH]2)cc1` [Example 103], the logP is 4.1.

On to `CCCCCN(C(=O)c1ccccc1)c1ccc2nc(CCC)n(Cc3ccc(-c4ccccc4NS(=O)(=O)C(F)(F)F)cc3)c(=O)c2c1` [Example 104], for which the lipophilicity (logP) stood at 5.7.

For `CCCc1nc2ccc(N(CCCC(=O)O)C(=O)c3ccccc3)cc2c(=O)n1Cc1ccc(-c2ccccc2-c2nnn[nH]2)cc1` [Example 105], the logP is 2.3.

Turning to `Cc1nc2ccc(N(Cc3ccccc3Cl)C(=O)c3ccccc3)cc2c(=O)n1Cc1ccc(-c2ccccc2-c2nn[nH]n2)cc1` [Example 106], the logP turned out to be 3.8.

For `Cc1nc2ccc(N(Cc3ccccc3)C(=O)c3ccncc3)cc2c(=O)n1Cc1ccc(-c2ccccc2-c2nnn[nH]2)cc1` [Example 107], the logP is 2.9.

For `CCCc1nc2ccc(N(C)C(C)=O)cc2c(=O)n1Cc1ccc(-c2ccccc2S(=O)(=O)NC(=O)C2CC2)cc1` [Example 108], the logP came to 2.9.

With `Cc1nc2ccc(N(Cc3ccccc3Cl)C(=O)c3ccncc3)cc2c(=O)n1Cc1ccc(-c2ccccc2-c2nnn[nH]2)cc1` [Example 110], the logP amounted to 3.1.

For the compound `CCc1nc2ccc(N(Cc3ccc(I)cc3)C(=O)c3ccccc3)cc2c(=O)n1Cc1ccc(-c2ccccc2-c2nnn[nH]2)cc1` [Example 112], the logP was 5.

Turning to `CCCCCN(C(=O)c1cccs1)c1ccc2nc(CCC)n(Cc3ccc(-c4ccccc4-c4nnn[nH]4)cc3)c(=O)c2c1` [Example 113], the logP is 5.1.

Turning to `CCCc1nc2ccc(N(C)C(=O)c3cccs3)cc2c(=O)n1Cc1ccc(-c2ccccc2-c2nnn[nH]2)cc1` [Example 114], the logP turned out to be 3.4.

Compound `CCc1nc2ccc(N(Cc3ccccc3I)C(=O)c3ccccc3)cc2c(=O)n1Cc1ccc(-c2ccccc2-c2nn[nH]n2)cc1` [Example 117] had a logP of 4.6.

Regarding `CCc1nc2ccc(N(Cc3ccccc3)C(=O)c3cccs3)cc2c(=O)n1Cc1ccc(-c2ccccc2-c2nn[nH]n2)cc1` [Example 118], the “log P” value was found to be 4.1.

For the compound `CCCc1nc2ccc(N(CCOC)C(=O)c3ccncc3)cc2c(=O)n1Cc1ccc(-c2ccccc2-c2nnn[nH]2)cc1` [Example 119], the logP stood at 3.

`CCCc1nc2ccc(N(CC(=O)O)C(=O)c3ccccc3)cc2c(=O)n1Cc1ccc(-c2ccccc2-c2nnn[nH]2)cc1` [Example 120] registered a logP of 2.1.

In the case of `CCCCCN(C(=O)c1ccc(Cl)cc1)c1ccc2nc(COC)n(Cc3ccc(-c4ccccc4-c4nnn[nH]4)cc3)c(=O)c2c1` [Example 121], the logP is 4.6.

Take `CCc1nc2ccc(N(Cc3ccccc3)C(=O)c3ccco3)cc2c(=O)n1Cc1ccc(-c2ccccc2-c2nnn[nH]2)cc1` [Example 122]: the logP turned out to be 3.9.

Turning to `CCCc1nc2ccc(N(CC)C(=O)c3cccs3)cc2c(=O)n1Cc1ccc(-c2ccccc2-c2nnn[nH]2)cc1` [Example 124], the logP was 3.8.

`CCCc1nc2ccc(N(CC)C(=O)c3ccco3)cc2c(=O)n1Cc1ccc(-c2ccccc2-c2nnn[nH]2)cc1` [Example 125] registered a logP of 3.5.

Compound `CCCc1nc2ccc(N(Cc3ccccc3)C(=O)c3ccccc3OC)cc2c(=O)n1Cc1ccc(-c2ccccc2-c2nn[nH]n2)cc1` [Example 126] came in with a logP of 5.

In turn, `CCCc1nc2ccc(N(CCC)C(=O)c3ccccc3OC)cc2c(=O)n1Cc1ccc(-c2ccccc2-c2nnn[nH]2)cc1` [Example 127] returned a logP of 4.1.

As to `CCCCCN(C(=O)c1ccc(OCc2ccccc2)cc1)c1ccc2nc(CCC)n(Cc3ccc(-c4ccccc4-c4nnn[nH]4)cc3)c(=O)c2c1` [Example 128], the logP was more than 5.7.

Compound `CCCc1nc2ccc(N(CCC)C(=O)c3ccc(OCc4ccccc4)cc3)cc2c(=O)n1Cc1ccc(-c2ccccc2-c2nnn[nH]2)cc1` [Example 129] displayed a logP of 5.5.

Take `CCCCCN(C(=O)c1ccc(O)cc1)c1ccc2nc(CCC)n(Cc3ccc(-c4ccccc4-c4nnn[nH]4)cc3)c(=O)c2c1` [Example 130]: the logP was determined as 4.7.

For `CCCc1nc2ccc(N(CCC)C(=O)c3ccc(O)cc3)cc2c(=O)n1Cc1ccc(-c2ccccc2-c2nnn[nH]2)cc1` [Example 131], the logP came to 3.8.

As for `CCCc1nc2ccc(N(Cc3ccccc3)C(=O)Cn3ccnc3)cc2c(=O)n1Cc1ccc(-c2ccccc2-c2nn[nH]n2)cc1` [Example 132], the logP is 3.6.

Take `CCCc1nc2ccc(N(Cc3ccccc3)C(=O)CN3CCN(C(=O)OC(C)(C)C)CC3)cc2c(=O)n1Cc1ccc(-c2ccccc2-c2nnn[nH]2)cc1` [Example 133]: the logP worked out at 5.3.

`CCCc1nc2ccc(N(Cc3ccccc3)C(=O)c3cccnc3)cc2c(=O)n1Cc1ccc(-c2ccccc2-c2nnn[nH]2)cc1` [Example 134] showed a logP of 3.7.

For the compound `CCCc1nc2ccc(N(Cc3ccccn3)C(=O)Oc3ccccc3)cc2c(=O)n1Cc1ccc(-c2ccccc2-c2nn[nH]n2)cc1` [Example 135], the logP is 3.6.

For orientation: logP means the decadic logarithm of the partition coefficient of the neutral form, usually between octanol and water. Lower therefore signals a more hydrophilic compound. One may read the log P as the decadic logarithm of the partition coefficient of the neutral form, usually between octanol and water.

Values taken from patent US5385894A, “Disubstituted 6-aminoquinazolinones” (Merck & Co., Inc., priority 1994, dated 1995).
